Reference: US20230000842A1, “METHODS OF TREATING CARTILAGE DISORDERS THROUGH INHIBITION OF CLK AND DYRK” (SAMUMED, LLC, priority 2019, published 2023)

What was measured:
CLK2 kinase = CLK2 kinase (Homo sapiens, UniProt P49760); assay: CLK2 kinase activity assay (Z-lyte FRET); format: biochemical; settings: Z-lyte Ser/Thr 6 peptide, 60 μM ATP, 1 h at room temperature;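 note: FRET read-out as coumarin to fluorescein emission ratio, unphosphorylated peptide as 0% and phosphorylated peptide as 100% controls, duplicate reactions, non-linear regression fit of dose-response curves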
Method: This is a non-radioactive assay using fluorescence resonance energy transfer (FRET) between coumarin and fluorescein to detect kinase activity which is represented as a ratio of coumarin emission/fluorescein emission.
The mixture was allowed to incubate with the representative compounds for one hour at room temperature. All reactions were performed in duplicate. Unphosphorylated (“0% Control”) and phosphorylated (“100% control”) forms of Ser/Thr 6 served as control reactions. Additionally, an 11-point dose-response curve of Staurosporine (1 μM top) was run to serve as a positive compound control.
After incubation, Development Reagent A was diluted in Development Buffer then added to the reaction and allowed to further incubate for one hour at room temperature.
Dose-response curves were generated and inhibitory concentration (IC50) values were calculated using non-linear regression curve fit in the Dotmatics' Studies Software (Bishops Stortford, UK).

CLK3 kinase = CLK3 kinase (Homo sapiens, UniProt P49761); assay: CLK3 kinase activity assay (Z-lyte FRET); format: biochemical; settings: Z-lyte Ser/Thr 18 peptide, 156 μM ATP, 1 h at room temperature;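 note: kinase activity read as coumarin/fluorescein emission ratio by FRET, unphosphorylated peptide as 0% and phosphorylated peptide as 100% control, values from non-linear regression of dose-response curves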
[1] = system: MMP-3 levels in supernatant of chondrocytes stimulated with IL1-β; assay: Chondrocyte protection assay compound screening (MMP-3 LANCE Ultra); format: cell-based, human; settings: Homo sapiens, Chondrocyte, IL1-β 10 ng/mL overnight, 11-point curves from 3 μM to 0.05 nM; for Emax: read-out: Maximum % Inhibition
In short: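 Primary human chondrocytes (passage 2–5) in differentiation medium were stimulated with 10 ng/mL IL1-β for an overnight incubation at 37 °C. MMP-3 in 1:7-diluted supernatant was read by TR-FRET immunoassay against a standard curve, normalised to IL1-β-stimulated wells; EC50 and maximum % inhibition came from nonlinear regression.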

[2] = system: Wnt pathway activity (SW480 colon carcinoma cells stably expressing the Sp5-Luc reporter); assay: Wnt pathway activity screening assay (Sp5-Luc reporter gene assay); settings: Homo sapiens, SW480, Table 4; SW480 cells stably expressing Sp5-Luc reporter, 10-point dose-response from 10 μM, 36 to 48 hours
Method: The screening assay for Wnt pathway activity is described as follows.
SW480 colon carcinoma cells were transduced with a lentiviral vector expressing luciferase with a human Sp5 promoter consisting of a sequence of eight TCF/LEF binding sites. […] These stably transduced SW480 cells were expanded in cell culture and used for all further screening activities. Each compound was dissolved in DMSO as a 10 mM stock and used to prepare compound source plates. Serial dilution (1:3, 10-point dose-response curves starting from 10 μM) and compound transfer was performed using the ECHO 550 (Labcyte, Sunnyvale, Calif.) into 384-well white solid bottom assay plates (Greiner Bio-One) with appropriate DMSO backfill for a final DMSO concentration of 0.1%. […] Following incubation, 15 μl of BriteLite Plus luminescence reagent (Perkin Elmer) was added to each well of the 384-well assay plates. The plates were placed on an orbital shaker for 2 min and then luminescence was quantified using the Envision (Perkin Elmer) plate reader.

CLK3 kinase, sequence (P49761 whole entry): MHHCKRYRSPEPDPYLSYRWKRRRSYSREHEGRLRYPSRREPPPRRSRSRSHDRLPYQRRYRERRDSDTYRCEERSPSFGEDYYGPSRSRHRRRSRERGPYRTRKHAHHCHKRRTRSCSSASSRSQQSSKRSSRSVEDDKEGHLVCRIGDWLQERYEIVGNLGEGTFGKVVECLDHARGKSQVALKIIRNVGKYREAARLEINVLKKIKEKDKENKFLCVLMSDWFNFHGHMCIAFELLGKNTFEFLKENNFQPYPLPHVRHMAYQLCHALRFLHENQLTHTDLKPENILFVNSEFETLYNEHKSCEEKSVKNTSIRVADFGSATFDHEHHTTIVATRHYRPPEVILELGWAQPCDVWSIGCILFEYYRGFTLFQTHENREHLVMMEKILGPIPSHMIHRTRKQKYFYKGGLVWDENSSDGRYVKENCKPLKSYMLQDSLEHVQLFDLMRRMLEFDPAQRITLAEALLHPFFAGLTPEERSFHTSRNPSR
CLK2 kinase, sequence (P49760 whole entry): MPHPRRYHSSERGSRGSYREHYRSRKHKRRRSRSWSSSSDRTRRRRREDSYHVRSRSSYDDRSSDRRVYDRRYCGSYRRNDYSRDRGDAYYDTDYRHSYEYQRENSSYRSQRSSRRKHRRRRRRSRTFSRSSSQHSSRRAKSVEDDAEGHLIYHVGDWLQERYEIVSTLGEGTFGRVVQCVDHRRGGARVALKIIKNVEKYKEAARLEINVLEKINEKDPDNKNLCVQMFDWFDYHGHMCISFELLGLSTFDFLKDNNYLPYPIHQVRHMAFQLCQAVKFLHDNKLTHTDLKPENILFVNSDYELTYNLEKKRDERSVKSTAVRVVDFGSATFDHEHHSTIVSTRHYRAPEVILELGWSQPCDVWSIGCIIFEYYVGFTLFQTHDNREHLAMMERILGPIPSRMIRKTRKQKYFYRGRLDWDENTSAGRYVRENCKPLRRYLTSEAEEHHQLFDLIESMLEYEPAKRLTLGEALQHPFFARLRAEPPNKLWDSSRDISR

| SMILES | EC50 (CLK2 kinase) [nM] | EC50 (CLK3 kinase) [nM] | EC50 [2] [nM] | EC50 [1] [nM] | Emax [1] [%] |
| --- | --- | --- | --- | --- | --- |
| O=C(Nc1ccc(N2CCCC2)nc1)c1n[nH]c2ccc(-c3cncc(CN4CCC4)c3)cc12 [compound 68] | 1 | 139 | > 10000 | ≥ 3000 | 26.6 |
| NC(=O)c1n[nH]c2ccc(-c3cncc(CN4CCCCC4)c3)cc12 [compound 74] | 12 | 498 | 1960 | 2.3 | 62.7 |
| O=C(Nc1ccc(OC(CO)CO)nc1)c1n[nH]c2ccc(-c3cncc(CN4CCCCC4)c3)cc12 [compound 83] | 5 | 73 | 500 | 303 |  |
| NC(=O)c1ccc(NC(=O)c2n[nH]c3ccc(-c4cncc(CN5CCCCC5)c4)cc23)cn1 [compound 87] | 1 | 11 | 13 | 2220 | 100 |
| CS(=O)(=O)c1ccc(NC(=O)c2n[nH]c3ccc(-c4cncc(CN5CCCCC5)c4)cc23)cn1 [compound 89] | 1 | 14 | 27 | 5.5 | 79.8 |
| O=C(Nc1cccnc1)c1n[nH]c2ccc(-c3cncc(CN4CCS(=O)(=O)CC4)c3)cc12 [compound 100] | 1 | 37 | 210 | 616 | 8.6 |
| O=C(Nc1ccc(CN2CCCC2)cc1)c1n[nH]c2ccc(-c3cncnc3)cc12 [compound 103] | 2 | 1430 | 1310 | 307 | 36.3 |
| O=C(Nc1ccc(CN2CCCC2)cc1)c1n[nH]c2ccc(-c3cnccn3)cc12 [compound 104] | 2 | 378 | 1660 | 7.1 | 72.8 |
| Cn1cc(-c2cc3c(C(=O)Nc4ccc(OCCN5CCCC5)cc4)n[nH]c3cc2F)cn1 [compound 108] | 1 | 101 | 315 | ≥ 3000 | 32.1 |
| CN1CCC(Nc2ccc(NC(=O)c3n[nH]c4cc(F)c(-c5cnn(C)c5)cc34)cn2)CC1 [compound 109] | 1 | 79 | 230 | 1160 | 100 |

Second part, led by results:

| EC50 (CLK2 kinase) [nM] | EC50 (CLK3 kinase) [nM] | EC50 [2] [nM] | SMILES | EC50 [1] [nM] | Emax [1] [%] |
| --- | --- | --- | --- | --- | --- |
| 2 | 62 | > 10000 | O=C(Nc1cccnc1)c1n[nH]c2ccc(-c3cncc(CN4CC(CO)(CO)C4)c3)cc12 [compound 69] | 69.7 | 12.3 |
| 6 | 1670 | 1820 | O=C(NCc1cc(F)cc(F)c1)c1n[nH]c2ccc(-c3cncc(CN4CCCCC4)c3)cc12 [compound 77] | ≥ 3000 | 84.8 |
| 1 | 12 | 30 | O=C(Nc1ccc(C(=O)N2CCCC2)nc1)c1n[nH]c2ccc(-c3cncc(CN4CCCCC4)c3)cc12 [compound 88] | ≥ 3000 | 100 |
| 1 | 39 | 1500 | O=C(Nc1ccc(N2CC(CO)(CO)C2)nc1)c1n[nH]c2ccc(-c3cncc(CN4CCCCC4)c3)cc12 [compound 90] | 6.7 | 29.7 |
| 1 | 17 | 30 | Nc1ncc(NC(=O)c2n[nH]c3ccc(-c4cncc(CN5CCCCC5)c4)cc23)cn1 [compound 96] | 180 | 100 |
| 2 | 135 | 430 | O=C(Nc1cnccn1)c1n[nH]c2ccc(-c3cncc(CN4CCCCCC4)c3)cc12 [compound 99] | ≥ 3000 | 39.6 |
| 1 | 2440 | 2400 | CC(C)NC(=O)c1n[nH]c2ccc(-c3cncc(NC4CCNCC4)n3)cc12 [compound 105] | 2740 | 53.1 |
